The values below come from US10238623B2, “C14-hydroxyl esterified amino acid derivative of triptolide, and preparation method and use thereof” (HANGZHOU WEBEN PHARMACEUTICALS INC, priority 2015, dated 2019).

Where “and” joins values, the source holds several entries; their conditions need not be identical. Equal values may be shown once.

Assay [1] relates to normal human blood cells. As to the kind of experiment: MTT assay, normal human blood cells, 72 h. Type of assay: cell-based. Conditions: Normal Blood Cell. Here is the method:
Leukemia cell strains: Sup-B15 (Ph+acute lymphoblastic leukemia), CEM (acute lymphoblastic leukemia, ALL), and Molt-4 (acute lymphoblastic leukemia, ALL). Normal blood cell samples: peripheral blood from healthy volunteers. • Primary reagent: 14-D-Valine-TPL of the invention. Primary instruments: cell incubator and microplate reader. (2) Experimental Method
5000 well-grown leukemia cells or normal human blood cells were taken and seeded into wells of a 96-well cell culture plate. The medium was 1640 cell medium containing 10% fetal bovine serum. 14-D-Valine-TPL with different concentrations was added, and after being uniformly mixed, the plate was placed in a carbon dioxide (5% CO2) cell incubator, and incubated at 37° C. for 72 hours. The concentration of live cells was then determined using the MTT assay. In this experiment, the cell viability in the control group (without the compound treatment) was set to be 100%, and the cell viability (%) after the action of the compound the half maximal growth inhibitory concentration of leukemia cells at 72 hours (IC50 value at 72 hours) and the therapeutic window index were calculated. Therapeutic window index=IC50 value of normal blood cells/IC50 value of leukemia cells. […] A larger therapeutic window indicates a better selectivity of the compound for tumor cells.
Background: Tetrazolium assays rely on reduction of a dye to a coloured formazan, in cell work by metabolically active cells.

The subject of assay [2] is HL-60. As to the kind of experiment: MTT growth inhibition, HL-60 cells, 72 h. Conditions: Homo sapiens, HL-60, MTT. Type of assay: cell-based. Here is the method: (§1) 5000 well-grown leukemia cells were taken and seeded into wells of a 96-well cell culture plate. The medium was 1640 cell medium containing 10% fetal bovine serum. 14-D-Valine-TPL with different concentrations was added, and after being uniformly mixed, the plate was placed in a carbon dioxide (5% CO2) cell incubator, and incubated at 37° C. for 72 hours. The concentration of live cells was then determined using the MTT assay. In this experiment, the cell viability in the control group (without the compound treatment) was set to be 100%, and the cell viability (%) after the action of the compound and the half maximal growth inhibitory concentration of leukemia cells at 72 hours (IC50 value at 72 hours) were calculated.

Assay [3] deals with human acute myelogenous leukemia KG-1a cells. As to the kind of experiment: KG-1a subcutaneous xenograft in NOD/SCID mice. Conditions: for Tumor weight: KG-1a, individual mice, end of experiment. It counts as in vivo. Here is the method: (§2) 7-week old female NOD/SCID mice were taken and inoculated subcutaneously with 1×10^7 cells (0.2 ml) per mouse in axilla, with human acute myelogenous leukemia KG-1a cells on the left and human acute monocytic leukemia THP-1 cells on the right. When tumors grew to a tumor size of around 0.5 cm, the mice were randomized into groups with 3 mice each. An equivalent amount of PBS was used for the control group, and the 14-D-Valine-TPL group was divided into two groups with 0.2 mg/kg body weight and 0.4 mg/kg body weight: intragastric administration 2 times a day (one at 8 a.m. and one at 4 p.m.) for consecutive 14 days of treatment. An observation was made for total 30 days, during which the conditions of the mice such as tumor size, weight, activity, diet, and the like were measured. At the end of the experiment, the mice were sacrificed, tumor tissues were taken and the tumors were weighed, and major organs and tissues of the mice such as liver, spleen, heart, lung, large intestine, small intestine, and the like were examined.
as §2, with “the left.” for “the left and human acute monocytic leukemia THP-1 cells on the right.”, “around 50-100 mm^3,” for “around 0.5 cm,”, “the TPL-LLV” for “the 14-D-Valine-TPL”, “with 0.23” for “with 0.2”, “and 0.46” for “and 0.4”, “intragastric administration,” for “intragastric administration”
as §2, with “the left.” for “the left and human acute monocytic leukemia THP-1 cells on the right.”, “around 50-100 mm^3,” for “around 0.5 cm,”, “the TPL-DLV” for “the 14-D-Valine-TPL”, “with 0.23” for “with 0.2”, “and 0.46” for “and 0.4”, “intragastric administration,” for “intragastric administration”
as §2, with “the left.” for “the left and human acute monocytic leukemia THP-1 cells on the right.”, “around 50-100 mm^3,” for “around 0.5 cm,”, “the TPL-DLV” for “the 14-D-Valine-TPL”, “with 0.32” for “with 0.2”, “and 0.64” for “and 0.4”, “intragastric administration,” for “intragastric administration”

In assay [4] the test system is THP-1. As to the kind of experiment: MTT growth inhibition, THP-1 cells, 72 h. Type of assay: cell-based. The following applies: Homo sapiens, THP-1, MTT. Here is the method:
as §1

The term IC50 denotes the concentration that inhibits the measured activity by half. A low value points to higher potency. For the compound `CC(C)[C@@H](N)C(=O)O[C@@H]1[C@@]2(C(C)C)O[C@H]2[C@@H]2O[C@]23[C@]12O[C@H]2C[C@H]1C2=C(CC[C@@]13C)C(=O)OC2` [14-D-Valine-TPL, 14-Dextro-Valine-Triptolide], the half-maximal inhibitory concentration (IC50) in assay [1] (Homo sapiens, 72 h, Overall, MTT) is 201 nM; in assay [1] (Homo sapiens, 72 h, individual healthy volunteers No1-No9, MTT), 203 nM; in assay [1] (individual healthy volunteers No1-No9, MTT), 199 nM and 206 nM and 200 nM and 214 nM and 190 nM and 204 nM and 185 nM and 211 nM; in assay [2], 65.8 nM; in assay [4], 16 nM. Also, the “growth of KG-1a in mice in vivo (in words)” value in assay [3] (KG-1a xenograft, intragastric 2 times a day, 14 days, dose-dependent effect) is on record as “significantly inhibit the growth”. Further, the Tumor weight is 0.42 g and 1.49 g and 0.06 g and 0.98 g and 0.2 g and 0.5 g in assay [3] (trifluoroacetate 0.2 mg/kg intragastric 2 times a day, 14 days, listed as DV); 0 g in assay [3] (trifluoroacetate 0.4 mg/kg intragastric 2 times a day, 14 days). The “regression of KG-1a xenograft tumors” value in assay [3] (dose of 0.4 mg per kilogram of the body weight) was “complete regression”.
